Patent publication US11731976B2, “3-(ethoxydifluoromethyl)-6-(5-fluoro-6-(2,2,2-trifluoroethoxy)pyridin-3-yl)-[1,2,4]triazolo[4,3-a]pyridine as an ion channel modulator” (Praxis Precision Medicines, Inc., priority 2018, dated 2023)

Experiments:
[1] = target: T1, human NaV 1.2 (h NaV 1.2) (Homo sapiens, UniProt Q99250); experiment: Modulation of late sodium current (INaL), PatchXpress electrophysiology, HEK-293 cells expressing hNaV1.2; assay type: cell-based; details: HEK293, read-out: NaV 1.2 Assay Data: percent inhibition of INaL at hNaV1.2
T1 construct: expressed in transfected cells; host or cells: HEK-293

Male CD-1 mice = experiment: Maximal Electroshock induced Seizure (MES) assay in mice; assay type: in vivo, mouse; details: 35% HPCD, pre-treatment 30 min, recorded up to 60 seconds post stimulus
Method: Male CD-1 mice, weighing 25-35 g were assessed in the Maximal Electroshock induced Seizure (MES) assay. Briefly, mice were dosed with compound (n=12/group) according to the dosing parameters in Table 20 and the latency to induce tonic hind limb extension following transauricular electrical stimulation (50 Hz, 50 mA, 0.8 sec duration, pulse width of 10 ins) was recorded up to 60 seconds post stimulus.

hNaV1.6-N984K = target: T2, hNaV1.6-N984K (Homo sapiens, UniProt Q9UQD0, N984K); experiment: Voltage ramp activated sodium current (Ramp INa), PatchXpress, HEK-293; assay type: cell-based; details: HEK293; percent inhibition of enhanced ramp current at 1 μM; +600 mv/sec ramp from −100 mV to +20 mV
T2 construct: expressed in transfected cells; host or cells: HEK-293
Method: (§1) Functional characterization of exemplary compounds to modulate INa expressed by various human isoforms and disease-causing mutant voltage-gated sodium channels was accomplished using the PatchXpress high throughput electrophysiology platform (Molecular Devices, Sunnyvale, Calif.). HEK-293 cells expressing a recombinant, human NaV1.X sodium channel (either hNaV1.6-WT, hNaV1.6-R223G, hNaV1.6-N984K, hNaV1.6-N1768D, hNaV1.1-WT, hNaV1.2-WT, hNaV1.5-WT, hNaV1.7-WT, or hNaV1.8-WT) were grown in DMEM/high-glucose Dulbecco's modified, 10% FBS, 2 mM sodium pyruvate, 10 mM HEPES and 400 μg/mL G418. Cells were grown to 50%-80% confluency prior to harvesting. Trypsinized cells were washed, allowed to recover for 1 hour and then resuspended in extracellular recording solution at a concentration of 1×10^6 cells/ml. The onboard liquid handling facility of the PatchXpress was used for dispensing cells and applying test compounds. INa amplitude and stability were determined by analyzing the peak current amplitude.
(§2) The Nav1.6 mutant channels (hNaV1.6-R223G, hNaV1.6-N984K, hNaV1.6-N1768D) express an enhanced sodium current in response to a ramp voltage depolarization when compared to the wild-type hNaV1.6-WT. This enhanced, depolarizing ramp current is thought to contribute to enhanced neuronal excitability. The degree of block with exemplary compounds (e.g., as described herein) was measured using a +600 mv/sec voltage ramp from −100 mV to +20 mV. The ramp current was defined as the area of the current measured between −55 mV and +15 mV. Following steady state block with exemplary compounds (e.g., as described herein) at 1 μM, a Na^+ free solution containing an impermeant cation (e.g., Choline or NMDG) was added for determination of the baseline current level for offline subtraction. Percent inhibition of enhanced ramp current was calculated as (compound−baseline)/(control−baseline)*100, where control represents the ramp current recorded in the absence of compound. In this table, “A” indicates inhibition between less than 0% to 50% and “B” indicates inhibition of greater than 50% and N/A indicates the compound was not tested.

hNaV1.6-N1768D = target: T3, hNaV1.6-N1768D (Homo sapiens, UniProt Q9UQD0, N1768D); experiment: as above; assay type: cell-based; details: HEK293; percent inhibition of enhanced ramp current at 1 μM; +600 mv/sec ramp from −100 mV to +20 mV
T3 construct: expressed in transfected cells; host or cells: HEK-293
Method: as §1, §2

hNaV1.6-R223G = target: T4, hNaV1.6-R223G (Homo sapiens, UniProt Q9UQD0, R223G); experiment: as above; assay type: cell-based; details: HEK293; percent inhibition of enhanced ramp current at 1 μM; +600 mv/sec ramp from −100 mV to +20 mV
T4 construct: expressed in transfected cells; host or cells: HEK-293
Method: as §1, §2

human NaV1.6 (hNaV1.6) = target: T5, human NaV1.6 (hNaV1.6) (Homo sapiens, UniProt Q9UQD0); experiment: Modulation of late sodium current (INaL), PatchXpress electrophysiology, HEK-293 cells expressing hNaV1.6; assay type: cell-based; details: HEK293, late current evoked by 300 nM ATX-II, read-out: NaV 1.6 Assay Data: percent inhibition of INaL at hNaV1.6
T5 construct: expressed in transfected cells; host or cells: HEK-293
Outline: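 PatchXpress automated patch clamp on HEK-293 cells expressing recombinant hNaV1.6; late current enhanced with 300 nM ATX-II. INaL evoked by 200 ms steps to 0 mV from about −120 mV at 0.1 Hz, measured as mean amplitude over the final 20 ms. Percent steady-state inhibition versus control current.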

hNaV1.5-WT = target: T6, hNaV1.5-WT (Homo sapiens, UniProt Q14524); experiment: Voltage step activated sodium current (Peak INa), PatchXpress, HEK-293; assay type: cell-based; details: HEK293; percent inhibition measured at 1 μM; step to 0 mV from half-inactivation holding potential
T6 construct: expressed in transfected cells; host or cells: HEK-293
Method: as §1
(§3) Peak INa was evoked by depolarizing steps to 0 mV for 20 ms from a holding potential which evoked half-inactivation (e.g., −60 mV) at a frequency of 0.1 Hz. The voltage of half-inactivation was determined for each cell using a 5 sec prepulse to membrane potentials between −120 mV and −20 mV followed immediately by a voltage step to a fully activating membrane voltage (e.g., 0 mV). Following steady state block with exemplary compounds (e.g., as described herein), the degree of inhibition was measured using the average of three consecutive voltage steps. Percent steady-state inhibition of INa was calculated as: [(INa_compound)/(INa_control)]*100, where INa_compound and INa_control represent INa recorded in the presence or absence of compound, respectively.
(§4) In this table, “A” indicates inhibition between less than 0% to 50% and “B” indicates inhibition of greater than 50% and N/A indicates the compound was not tested.

hNaV1.6-WT = target: T7, hNaV1.6-WT (Homo sapiens, UniProt Q9UQD0); experiment: as above; assay type: cell-based; details: HEK293; percent inhibition measured at 1 μM; step to 0 mV from half-inactivation holding potential
T7 construct: expressed in transfected cells; host or cells: HEK-293
Method: as §1, §3, §4

hNaV1.2-WT = target: T8, hNaV1.2-WT (Homo sapiens, UniProt Q99250); experiment: as above; assay type: cell-based; details: percent inhibition measured at 1 μM; step to 0 mV from half-inactivation holding potential
T8 construct: expressed in transfected cells; host or cells: HEK-293
Method: as §1, §3, §4

hNaV1.8-WT = target: T9, hNaV1.8-WT (Homo sapiens, UniProt Q9Y5Y9); experiment: as above; assay type: cell-based; details: HEK293; percent inhibition measured at 1 μM; step to 0 mV from half-inactivation holding potential
T9 construct: expressed in transfected cells; host or cells: HEK-293
Method: as §1, §3, §4

hNaV1.7-WT = target: T10, hNaV1.7-WT (Homo sapiens, UniProt Q15858); experiment: as above; assay type: cell-based; details: HEK293; percent inhibition measured at 1 μM; step to 0 mV from half-inactivation holding potential
T10 construct: expressed in transfected cells; host or cells: HEK-293
Method: as §1, §3, §4

hNaV1.1-WT = target: T11, hNaV1.1-WT (Homo sapiens, UniProt P35498); experiment: as above; assay type: cell-based; details: percent inhibition measured at 1 μM; step to 0 mV from half-inactivation holding potential
T11 construct: expressed in transfected cells; host or cells: HEK-293
Method: as §1, §3, §4

T8 sequence (Q99250 whole entry): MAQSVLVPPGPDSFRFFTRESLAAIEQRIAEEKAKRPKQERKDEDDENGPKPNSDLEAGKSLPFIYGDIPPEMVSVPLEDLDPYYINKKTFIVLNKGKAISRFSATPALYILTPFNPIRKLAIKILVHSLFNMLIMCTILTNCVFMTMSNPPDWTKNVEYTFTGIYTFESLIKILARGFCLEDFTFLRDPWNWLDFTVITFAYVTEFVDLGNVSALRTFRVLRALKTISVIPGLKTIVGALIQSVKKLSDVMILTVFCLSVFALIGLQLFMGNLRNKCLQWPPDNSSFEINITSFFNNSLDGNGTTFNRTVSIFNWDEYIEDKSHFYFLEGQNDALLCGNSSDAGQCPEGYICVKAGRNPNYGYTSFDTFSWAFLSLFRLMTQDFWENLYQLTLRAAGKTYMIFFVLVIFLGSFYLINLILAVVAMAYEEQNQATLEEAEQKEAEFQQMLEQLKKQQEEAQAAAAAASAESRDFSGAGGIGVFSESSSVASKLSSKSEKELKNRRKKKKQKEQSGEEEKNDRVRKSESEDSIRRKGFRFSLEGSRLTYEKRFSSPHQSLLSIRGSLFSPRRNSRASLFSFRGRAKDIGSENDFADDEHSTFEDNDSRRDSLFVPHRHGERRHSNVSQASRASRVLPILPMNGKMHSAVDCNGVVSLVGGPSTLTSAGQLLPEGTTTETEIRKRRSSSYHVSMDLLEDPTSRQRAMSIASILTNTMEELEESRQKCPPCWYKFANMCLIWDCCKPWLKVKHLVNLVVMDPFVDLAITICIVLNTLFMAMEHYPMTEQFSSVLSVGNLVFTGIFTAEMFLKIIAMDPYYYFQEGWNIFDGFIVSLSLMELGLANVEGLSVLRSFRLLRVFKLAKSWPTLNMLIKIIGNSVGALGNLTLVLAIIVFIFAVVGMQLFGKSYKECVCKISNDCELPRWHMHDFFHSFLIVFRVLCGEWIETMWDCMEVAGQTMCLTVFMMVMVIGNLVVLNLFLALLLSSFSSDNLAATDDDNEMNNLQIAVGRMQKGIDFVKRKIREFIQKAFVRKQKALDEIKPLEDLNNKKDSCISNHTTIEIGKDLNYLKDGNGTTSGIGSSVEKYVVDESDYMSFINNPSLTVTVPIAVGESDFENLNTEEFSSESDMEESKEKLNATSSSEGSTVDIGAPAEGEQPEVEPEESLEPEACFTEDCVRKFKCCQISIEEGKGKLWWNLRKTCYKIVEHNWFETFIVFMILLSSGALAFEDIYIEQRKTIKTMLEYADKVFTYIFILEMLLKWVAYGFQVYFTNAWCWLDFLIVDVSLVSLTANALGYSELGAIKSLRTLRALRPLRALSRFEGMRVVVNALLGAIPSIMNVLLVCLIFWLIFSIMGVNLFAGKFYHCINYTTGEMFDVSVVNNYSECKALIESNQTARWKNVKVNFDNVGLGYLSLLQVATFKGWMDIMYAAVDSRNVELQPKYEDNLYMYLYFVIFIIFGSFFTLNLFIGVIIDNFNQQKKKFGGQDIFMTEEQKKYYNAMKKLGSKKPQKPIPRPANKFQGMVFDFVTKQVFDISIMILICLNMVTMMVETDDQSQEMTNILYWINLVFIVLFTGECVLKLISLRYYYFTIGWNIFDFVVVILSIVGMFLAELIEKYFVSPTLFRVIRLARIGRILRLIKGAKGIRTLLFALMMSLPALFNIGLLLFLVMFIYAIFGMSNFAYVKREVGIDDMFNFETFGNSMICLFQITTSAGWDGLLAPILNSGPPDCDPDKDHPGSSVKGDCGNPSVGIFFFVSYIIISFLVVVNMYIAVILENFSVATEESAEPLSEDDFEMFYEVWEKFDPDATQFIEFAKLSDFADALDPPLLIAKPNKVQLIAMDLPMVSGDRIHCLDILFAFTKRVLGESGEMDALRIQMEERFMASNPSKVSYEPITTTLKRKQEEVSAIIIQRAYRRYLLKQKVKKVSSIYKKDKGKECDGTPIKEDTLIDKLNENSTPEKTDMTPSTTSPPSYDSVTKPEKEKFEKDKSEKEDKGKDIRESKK
T1 sequence (Q99250 whole entry): as above
T4 sequence (Q9UQD0 whole entry R223G): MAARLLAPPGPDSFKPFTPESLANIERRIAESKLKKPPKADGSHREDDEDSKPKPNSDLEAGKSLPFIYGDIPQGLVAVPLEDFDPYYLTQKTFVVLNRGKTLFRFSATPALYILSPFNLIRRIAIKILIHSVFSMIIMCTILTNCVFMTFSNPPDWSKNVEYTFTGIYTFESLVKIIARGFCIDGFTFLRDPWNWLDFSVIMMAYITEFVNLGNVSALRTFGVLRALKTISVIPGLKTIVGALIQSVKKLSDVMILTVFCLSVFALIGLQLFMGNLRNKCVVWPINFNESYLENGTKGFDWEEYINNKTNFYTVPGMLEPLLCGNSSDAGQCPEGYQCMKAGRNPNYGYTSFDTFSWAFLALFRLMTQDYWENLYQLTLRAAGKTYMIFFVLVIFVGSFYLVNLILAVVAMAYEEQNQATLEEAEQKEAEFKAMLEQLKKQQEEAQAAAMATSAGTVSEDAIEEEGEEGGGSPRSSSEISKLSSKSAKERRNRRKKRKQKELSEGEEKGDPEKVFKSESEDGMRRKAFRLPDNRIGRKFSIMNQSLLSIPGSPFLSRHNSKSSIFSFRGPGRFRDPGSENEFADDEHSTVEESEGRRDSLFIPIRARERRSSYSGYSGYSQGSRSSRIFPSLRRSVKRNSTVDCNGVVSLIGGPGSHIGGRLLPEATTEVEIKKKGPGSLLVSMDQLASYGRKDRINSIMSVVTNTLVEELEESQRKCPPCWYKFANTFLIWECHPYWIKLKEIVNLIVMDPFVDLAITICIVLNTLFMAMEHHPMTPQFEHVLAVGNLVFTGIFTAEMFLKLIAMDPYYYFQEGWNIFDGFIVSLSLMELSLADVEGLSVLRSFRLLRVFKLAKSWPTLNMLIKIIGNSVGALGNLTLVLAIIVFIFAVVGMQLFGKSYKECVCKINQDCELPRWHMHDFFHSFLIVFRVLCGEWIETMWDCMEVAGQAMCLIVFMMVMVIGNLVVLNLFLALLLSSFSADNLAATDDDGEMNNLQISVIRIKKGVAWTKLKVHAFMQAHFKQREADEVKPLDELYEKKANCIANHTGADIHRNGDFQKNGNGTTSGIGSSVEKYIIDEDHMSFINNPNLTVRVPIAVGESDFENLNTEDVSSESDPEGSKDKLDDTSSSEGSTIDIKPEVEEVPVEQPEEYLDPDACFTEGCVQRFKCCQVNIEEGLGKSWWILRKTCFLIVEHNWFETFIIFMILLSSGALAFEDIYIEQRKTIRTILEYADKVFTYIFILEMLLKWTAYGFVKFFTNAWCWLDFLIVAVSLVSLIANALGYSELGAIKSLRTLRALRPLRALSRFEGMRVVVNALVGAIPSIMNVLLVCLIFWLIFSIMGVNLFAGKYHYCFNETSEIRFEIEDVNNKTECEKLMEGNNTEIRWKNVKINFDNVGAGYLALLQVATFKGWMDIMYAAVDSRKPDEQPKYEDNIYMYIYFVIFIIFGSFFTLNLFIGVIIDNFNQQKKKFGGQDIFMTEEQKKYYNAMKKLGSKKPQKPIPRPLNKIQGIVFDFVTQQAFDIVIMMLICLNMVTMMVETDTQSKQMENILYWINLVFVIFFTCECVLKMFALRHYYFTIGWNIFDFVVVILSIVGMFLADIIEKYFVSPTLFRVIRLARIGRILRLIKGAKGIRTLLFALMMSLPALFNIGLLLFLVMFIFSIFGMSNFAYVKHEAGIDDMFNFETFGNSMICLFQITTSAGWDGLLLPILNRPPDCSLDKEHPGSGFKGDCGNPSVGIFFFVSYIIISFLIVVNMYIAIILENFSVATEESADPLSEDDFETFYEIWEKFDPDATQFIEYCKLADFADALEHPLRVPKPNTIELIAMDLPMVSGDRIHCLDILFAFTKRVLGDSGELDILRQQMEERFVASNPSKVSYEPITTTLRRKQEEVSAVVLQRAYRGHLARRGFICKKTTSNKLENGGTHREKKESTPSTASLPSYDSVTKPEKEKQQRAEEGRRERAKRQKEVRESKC
T3 sequence (Q9UQD0 whole entry N1768D): as the sequence (Q9UQD0 whole entry R223G) above, with G223R, N1768D counted along it
T2 sequence (Q9UQD0 whole entry N984K): as the sequence (Q9UQD0 whole entry R223G) above, with G223R, N984K counted along it
T7 sequence (Q9UQD0 whole entry): as the sequence (Q9UQD0 whole entry R223G) above, with G223R counted along it
T5 sequence (Q9UQD0 whole entry): as the sequence (Q9UQD0 whole entry R223G) above, with G223R counted along it

inhibition at 1 µM [1]: > 70%
inhibition at 1 µM (hNaV1.6-N984K): < 50%
inhibition at 1 µM (hNaV1.6-N1768D): > 50%
inhibition at 1 µM (hNaV1.6-R223G): > 50%
inhibition at 1 µM (human NaV1.6 (hNaV1.6)): > 70%
inhibition at 1 µM (hNaV1.6-WT): > 50%
inhibition at 1 µM (hNaV1.8-WT): > 50%
inhibition at 1 µM (hNaV1.7-WT): > 50%
hNav1.1 Peak INa (hNaV1.1-WT): B (inhibition of greater than 50%)
Compound: CCOC(F)(F)c1nnc2cnc(-c3cnc(OCC(F)(F)F)c(F)c3)cn12 [Compound 10]
Mean latency to tonic extension (Male CD-1 mice; 1 mg/kg PO): 7.9 s
Mean latency to tonic extension (Male CD-1 mice; 3 mg/kg PO): 36.3 s
Mean latency to tonic extension (Male CD-1 mice; 10 mg/kg PO): 55.2 s
inhibition at 1 µM (hNaV1.5-WT): > 50%
hNav1.2 Peak INa (hNaV1.2-WT): A (inhibition between less than 0% to 50%)
